1 substance from patent US11622975B2, “Compositions and methods for improved honey bee health” (priority 2019, dated 2023) can be followed below.

This experiment concerns honey bees. The experiment can be described thus: Cage survival study of bees fed sublethal doses of pesticides with or without MBCD. The format is in vivo, Apis mellifera. How it is done: This example illustrates the baseline effects of the inventive composition in the absence of an exogenous stressor. Samples of European honey bees, Apis mellifera, were collected from colonies maintained in the apiaries of the USDA-ARS Bee Research Laboratory in Beltsville, Md. Frames with emerging brood were removed from colonies and individually placed in a mesh-walled cage. The cages were transferred to an insect growth chamber at 34° C. and 70% humidity. After 24 hrs incubation, newly emerged honey bees were transferred to a honey bee rearing cup, with a top-feeder design, allowing for easy sampling of honey bees (see e.g., Evans et al., 2009). A 3 mL syringe filled with 50% sugar syrup mixture was inverted over the top of the rearing cup to provision the caged honey bees. The honey bees were also provisioned with 1.5 grams of honey bee pollen supplement in patty form (e.g., Bee-Pro®, available from Mann Lake Ltd, Hackensack, Minn.), supplemented 10% (w/w) with ground fresh pollen, and placed on cotton paper on the cup cage bottoms. Syringes and sucrose solution were changed every 3 days and cotton paper was changed once per week.
In this example, whether MBCD mitigates the toxicity of certain pesticides associated with honey bee death was investigated. Not intending to be theory-bound, it was hypothesized that the binding of hydrophobic pesticide molecules to CDs would translate into health benefits to honey bees that were exposed to such pesticides. Samples of honey bees were collected as in example 1. A cage study (n=30 bees per cage & 2 replicate cages per treatment) was performed using 50% sucrose solution that had been spiked with sublethal doses of common pesticides that are known to be toxic to honey bees to measure the ability of treatment MBCD compositions to confer protection to the honey bees. Analytical grade standards of clothianidin, imidacloprid, and chlorpyrifos (available from MilliporeSigma, St. Louis, Mo.) were first dissolved in acetone, then diluted to their final concentrations (Table 2) in 50% sugar syrup. The listed sublethal doses were derived from taking half of the previously published honey bee LD50s (referred to a “LD25” in Table 2). The solutions were administered via 3 mL syringes in rearing cups as previously stated. Fresh pesticide solutions were mixed every 3 days to coincide with syringe replacement (see e.g., Williamson et al., 2013; Li et al, 2017).
Median survival is represented for each treatment by (# days). Curves were compared using Log-Rank Mantel-Cox (p<0.0001 for clothianidin versus control, 1, or 10 μg MBCD; p<0.001 for chlorpyrifos versus control or 1 μg MBCD) and Gehan-Breslow-Wilcoxon (p<0.0001 for clothianidin versus control, 1, or 10 μg MBCD; p<0.05 for chlorpyrifos versus control or 1 μg MBCD). […] The chlorpyrifos treatment was able to reduce median lifespan on its own to 26 days compared to the 36 days of the control (FIG. 2C). While a dosage of 10 μg/bee MBCD did increase median lifespan to 30 days, there was not a significant change in median lifespan.

methyl-β-cyclodextrin [MBCD]: the median lifespan reads like this: (chlorpyrifos plus 1 μg/bee MBCD, chlorpyrifos alone 26 days) 36.5 days; (chlorpyrifos plus 10 μg/bee MBCD, chlorpyrifos alone 26 days) 30 days; (clothianidin plus 1 μg/bee MBCD, clothianidin alone 13.5 days) 31 days; (clothianidin plus 10 μg/bee MBCD, clothianidin alone 13.5 days) 40 days; (imidacloprid plus 1 μg/bee MBCD, imidacloprid alone 32 days) 31 days; (imidacloprid plus 10 μg/bee MBCD, imidacloprid alone 32 days) 36 days.
